# Measurements: the Bradley open melting point set (2014)
# Several values for one entry are separate records, joined by “and”; a condition that tells them apart may be missing. Identical values can stand only once.
row,SMILES,melting point
1,Clc1ccc(I)cc1 [1-chloro-4-iodobenzene],55 °C
2,c1cscn1 [thiazole],-33 °C
3,Nc1ccc([N+](=O)[O-])cc1 [4-nitroaniline],148 °C
4,"O=[N+]([O-])c1cccc(C=Cc2cccc([N+](=O)[O-])c2)c1 [1,1'-[1,2-Ethenediyl]bis[3-nitrobenzene]]",88 °C
5,O=C1COC(c2ccc(C(F)(F)F)cc2)CN1 (centres undefined) [flumetramide],116 °C
6,O=C(O)[C@@H]1C[C@@H]2C[C@H]1[C@@H](O)C2,161 °C
7,OB(O)c1ccc(-c2ccccc2)cc1 [biphenyl-4-boronic acid],243 °C
8,"COc1cc(C=O)cc(OC)c1 [3,5-dimethoxybenzaldehyde]",47 °C
9,CC1=C(/C=C/C(C)=C/C=C/C(C)=C/C(=O)O)C(C)(C)CCC1 [retinoic acid],181 °C
10,O=C(Cl)c1cncc(Br)c1 [5-bromonicotinoyl chloride],73 °C
11,"OCC#CCO [But-2-yne-1,4-diol]",57 °C
12,C/C=C\CC [cis-2-pentene],-151 °C
13,"BrC(Br)c1ccc(C(Br)Br)cc1 [1,4-bis(dibromomethyl)benzene]",168 °C
14,ClC1=C(Cl)C2(Cl)C3C(Cl)C(Cl)CC3C1(Cl)C2(Cl)Cl (stereo not drawn) [trans-gamma-chlordane],106 °C
15,CCC1(CC)C(=O)CCNC1=O [piperidione],102 °C
16,CC1(C)[C@@H]2CC[C@@]1(C)C(=O)C2 [camphor],180 °C
17,Cc1c(Cl)c(Cl)c(Cl)c(Cl)c1Cl [Pentachlorotoluene],225 °C
18,COC(=O)[C@]1(C(=O)O)[C@@H]2CCC[C@@H]21,137 °C
19,"Cn1c(=O)c2c(ncn2C)n(C)c1=O [1,3,7-Trimethyl-3,7-dihydro-1H-purine-2,6-dione]",237 °C
20,CC1=CC(=O)CC(C)(C)C1 [isophorone],-8 °C
21,CCCOC(C)=O [Propyl Acetate],-93 °C
22,ClC1C(Cl)C(Cl)C(Cl)C(Cl)C1Cl (stereo not drawn) [alpha-hexachlorocyclohexane],160 °C
23,COCC(=O)N(c1c(C)cccc1C)C(C)C(=O)OC (centres undefined) [metalaxyl],72 °C
24,O=C(O)Cc1cccc([N+](=O)[O-])c1 [m-nitro_phenylacetic_acid],119 °C
25,CNC(=NC#N)NCCSCc1nc[nH]c1C [cimetidine],141 °C

row,SMILES,melting point
1,CCOC(=O)Cc1ccc(N)cc1 [ethyl 4-aminophenylacetate],47 °C
2,"CC(=O)CC(C)=O [Pentane-2,4-dione]",-23 °C
3,CCC(C)Cl (centres undefined) [2-chlorobutane],-141 °C
4,OCc1ccc(I)cc1 [4-iodobenzyl alcohol],73 °C
5,O=Cc1c(F)c(F)c(F)c(F)c1F [pentafluorobenzaldehyde],26 °C
6,CCCCCC=O [hexanaldehyde],-56 °C
7,"Cl/C=C\Cl [(Z)-1,2-Dichloroethene]",-80 °C
8,COC(=O)c1ccc2[nH]nnc2c1 [methyl 1h-benzotriazole-5-carboxylate],174 °C
9,"CC12CCC(CC1=O)C2(C)C (centres undefined) [1,7,7-Trimethylbicyclo[2.2.1]heptan-2-one]",177 °C
10,"OB(O)c1ccc(Cl)cc1Cl [2,4-dichlorobenzeneboronic acid]",244 °C
11,O=P1(NCCCl)OCCCN1CCCl (centres undefined) [Ifosfamide],40 °C
12,CCOC(=O)CC(C)C [ethyl isovalerate],-99 °C
13,CC(=O)OC1CCC2(C)C(C1)CC1(OCCO1)C1C2CCC2(C)C1CCC21OCCO1 (centres undefined),208 °C
14,C#CCCCCCCCC [Dec-1-yne],-44 °C
15,CC(C)(C)C=O [trimethylacetaldehyde],6 °C
16,"Nc1cc(Br)cnc1N [5-bromo-2,3-diaminopyridine]",157 °C
17,COc1ccc(C(=O)O)cc1 [4-methoxybenzoic acid],184 °C
18,CC(=O)OO [Ethaneperoxoic acid],0.1 °C
19,Oc1ccccc1-c1ccccc1 [Biphenyl-2-ol],57 °C
20,"COC1(OC)CCC2(C)C(CCC3C4CCCC4(C)CCC32)C1 (centres undefined) [3,3-dimethoxyandrostane]",80 °C
21,OCCN(CCO)CCO [triethanolamine],20 °C
22,Clc1ccc(-c2cc(Cl)c(Cl)cc2Cl)cc1Cl [PCB-118],110 °C
23,Oc1c(Br)c(Br)c(O)c(Br)c1Br [tetrabromohydroquinone],244 °C
24,CCNCCO [2-(ethylamino)ethanol],-9 °C

# The next lines start with the values.
row,melting point,SMILES
1,156 °C,NS(=O)(=O)c1cccc(Br)c1 [3-bromobenzenesulfonamide]
2,80 °C and 82 °C and 81 °C,c1ccc2ccccc2c1 [naphthalene]
3,129 °C and 130 °C,NC(=O)c1ccccc1 [benzamide]
4,148 °C,O=C(O)c1ccccc1[N+](=O)[O-] [o-nitrobenzoic_acid]
5,126 °C,Cc1cc(-c2ccccc2)[nH]n1 [3-methyl-5-phenyl-1h-pyrazole]
6,37 °C,COC(=O)c1ccc(C)cc1 [methyl_4-methylbenzoate]
7,176 °C,NC(=O)c1ccccc1[N+](=O)[O-] [2-nitrobenzamide]
8,234 °C,O=C1NC(=O)c2ccccc21 [phthalimide]
9,200 °C,"NC(=O)c1c(-c2ccccc2)nn(-c2ccccc2)c1N [5-amino-1,3-diphenyl-1H-pyrazole-4-carboxamide]"
10,139 °C,[O-]/[N+](=N\c1ccccc1)c1ccc(/N=N/c2ccc(/[N+]([O-])=N/c3ccccc3)cc2)cc1 [(E)-bis{4-[(Z)-phenyl-NNO-azoxy]phenyl}diazene]
11,216 °C,c1ccc2cc3ccccc3cc2c1 [Anthracene]
12,77 °C,"COc1ccc(B(O)O)c(OC)c1OC [2,3,4-trimethoxybenzeneboronic acid]"
13,226 °C,Cc1nc(-c2ccccn2)sc1C(=O)O [4-methyl-2-(2-pyridyl)thiazole-5-carboxylic acid]
14,158 °C,Cc1ccccc1N1CCN(CCc2nnc3n2CCCC3)CC1 [dapiprazole]
15,122 °C,O=C(O)c1ccccc1 [benzoic acid]
16,22 °C,Cc1c(Cl)cccc1C#N [3-chloro-2-methylbenzonitrile]
17,125 °C,C(=C\c1ccccc1)/c1ccccc1 [trans-Stilbene]
18,161 °C,O=C(O)c1ccccc1O [Salicylic acid]
19,34 °C,CC(C)(O)c1ccccc1 [2-phenyl-2-propanol]
20,114 °C,"O=S(=O)(Nc1cccc(Cl)c1Cl)c1ccccc1 [2,3-dichloro-1-phenylsulfonamidobenzene]"
21,33 °C,"Nc1ccccc1CCc1ccccc1N [2,2'-Ethane-1,2-diyldianiline]"
22,183 °C,Clc1nc2ccccc2[nH]1 [2-chlorobenzimidazole]
23,116 °C,N#Cc1ccc2c(c1)N(CCCN1CCC(O)CC1)c1ccccc1S2 [Propericiazine]
24,256 °C,Cc1ccccc1N1C(=O)c2cc(S(N)(=O)=O)c(Cl)cc2NC1C (centres undefined) [Metolazone]
25,263 °C,"Cc1c(C)c(C#N)c2ccccc2c1C#N [2,3-dimethylnaphthalene-1,4-dicarbonitrile]"
